Data on 25 molecules can be found in patent US5916905A, “2,3-substituted pyridines for the treatment of inflammation” (G. D. Searle & Co., priority 1997, dated 1999).

The target in one assay is T1, COX-2 (Homo sapiens, UniProt P35354).
T1 construct: A 2.0 kb fragment containing the coding region; made in house; host or cells: SF9 insect cells (baculovirus, pVL1393)
T1 sequence (P35354 18-604): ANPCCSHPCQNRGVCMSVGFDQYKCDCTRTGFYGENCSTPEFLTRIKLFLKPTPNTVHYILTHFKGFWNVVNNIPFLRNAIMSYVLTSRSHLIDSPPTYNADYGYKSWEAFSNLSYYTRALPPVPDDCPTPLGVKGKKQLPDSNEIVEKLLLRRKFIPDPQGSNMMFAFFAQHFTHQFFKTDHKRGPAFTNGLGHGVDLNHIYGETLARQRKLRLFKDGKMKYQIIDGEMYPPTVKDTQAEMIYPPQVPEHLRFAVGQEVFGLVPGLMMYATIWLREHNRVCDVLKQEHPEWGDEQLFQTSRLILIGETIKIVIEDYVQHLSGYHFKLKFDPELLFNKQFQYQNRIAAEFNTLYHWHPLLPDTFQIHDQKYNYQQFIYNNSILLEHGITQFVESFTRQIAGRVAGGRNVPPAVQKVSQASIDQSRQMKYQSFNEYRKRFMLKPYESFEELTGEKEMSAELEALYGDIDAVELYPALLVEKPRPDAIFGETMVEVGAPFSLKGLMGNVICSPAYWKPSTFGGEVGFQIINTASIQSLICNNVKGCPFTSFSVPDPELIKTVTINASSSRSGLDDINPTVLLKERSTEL
Put plainly: COX-2 activity in vitro, recombinant human enzyme (PGE2 ELISA). It counts as biochemical. The conditions noted are these: human (h); 10 μM arachidonic acid, 10-20 min pre-incubation; read-out: COX-2 ID50. As to the method:
(§1) The COX-2 inhibition activity of the compounds of this invention illustrated in the Examples was determined by the following methods.
(§2) Recombinant COX-1 and COX-2 were prepared as described by Gierse et al, [J. Biochem., 305, 479-84 (1995)]. A 2.0 kb fragment containing the coding region of either human or murine COX-1 or human or murine COX-2 was cloned into a BamH1 site of the baculovirus transfer vector pVL1393 (Invitrogen) to generate the baculovirus transfer vectors for COX-1 and COX-2 in a manner similar to the method of D. R. O'Reilly et al (Baculovirus Expression Vectors: A Laboratory Manual (1992)). Recombinant baculoviruses were isolated by transfecting 4 μg of baculovirus transfer vector DNA into SF9 insect cells (2×10^8) along with 200 ng of linearized baculovirus plasmid DNA by the calcium phosphate method. See M. D. Summers and G. E. Smith, A Manual of Methods for Baculovirus Vectors and Insect Cell Culture Procedures, Texas Agric. Exp. Station Bull. 1555 (1987). Recombinant viruses were purified by three rounds of plaque purification and high titer (10^7 -10^8 pfu/ml) stocks of virus were prepared. For large scale production, SF9 insect cells were infected in 10 liter fermentors (0.5×10^6 /ml) with the recombinant baculovirus stock such that the multiplicity of infection was 0.1. After 72 hours the cells were centrifuged and the cell pellet homogenized in Tris/Sucrose (50 mM: 25%, pH 8.0) containing 1% 3-[(3-cholamidopropyl)dimethylammonio]-1-propanesulfonate (CHAPS). The homogenate was centrifuged at 10,000×G for 30 minutes, and the resultant supernatant was stored at -80° C. before being assayed for COX activity.
(§3) b. Assay for COX-1 and COX-2 activity COX activity was assayed as PGE2 formed/μg protein/time using an ELISA to detect the prostaglandin released. CHAPS-solubilized insect cell membranes containing the appropriate COX enzyme were incubated in a potassium phosphate buffer (50 mM, pH 8.0) containing epinephrine, phenol, and heme with the addition of arachidonic acid (10 μM). Compounds were pre-incubated with the enzyme for 10-20 minutes prior to the addition of arachidonic acid. Any reaction between the arachidonic acid and the enzyme was stopped after ten minutes at 37° C./room temperature by transferring 40 μl of reaction mix into 160 μl ELISA buffer and 25 μM indomethacin. The PGE2 formed was measured by standard ELISA technology (Cayman Chemical).

A further assay has as its target T2, COX-1 (Homo sapiens, UniProt P23219).
T2 construct: A 2.0 kb fragment containing the coding region; made in house; host or cells: SF9 insect cells (baculovirus, pVL1393)
Description: COX-1 activity in vitro, recombinant human enzyme (PGE2 ELISA). It counts as biochemical. The conditions noted are these: human (h); 10 μM arachidonic acid, 10-20 min pre-incubation; read-out: COX-1 ID50. As for the experimental part: as §1, §2, §3

Each structure is given as a SMILES string.

T2 sequence (P23219 24-599): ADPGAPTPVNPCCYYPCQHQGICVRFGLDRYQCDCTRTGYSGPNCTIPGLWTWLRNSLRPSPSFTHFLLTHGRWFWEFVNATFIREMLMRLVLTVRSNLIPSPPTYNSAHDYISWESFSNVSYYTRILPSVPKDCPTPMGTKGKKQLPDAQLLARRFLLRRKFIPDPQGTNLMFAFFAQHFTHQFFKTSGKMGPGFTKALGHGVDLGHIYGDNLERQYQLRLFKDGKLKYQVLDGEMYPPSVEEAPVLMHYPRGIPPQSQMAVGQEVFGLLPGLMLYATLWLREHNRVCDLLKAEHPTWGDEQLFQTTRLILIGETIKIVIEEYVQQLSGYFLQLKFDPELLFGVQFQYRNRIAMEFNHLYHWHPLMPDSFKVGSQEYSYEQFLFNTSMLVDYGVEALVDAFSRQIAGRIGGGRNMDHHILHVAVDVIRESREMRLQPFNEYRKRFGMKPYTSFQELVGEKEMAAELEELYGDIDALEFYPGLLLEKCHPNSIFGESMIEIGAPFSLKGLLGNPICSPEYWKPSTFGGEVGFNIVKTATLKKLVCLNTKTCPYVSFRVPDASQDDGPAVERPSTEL

On to `CCCCOc1nc(-c2ccc(F)cc2)c(-c2ccc(S(C)(=O)=O)cc2)cc1C(C)OC(=O)CCC` (racemic) [Example 44, (+/-) 1-[2-Butoxy-6-(4-fluorophenyl)-5-[4-(methylsulfonyl)phenyl]pyridin-3-yl]ethylbutanoate], for which the IC50 at COX-2 is 2000 nM; on COX-1, greater than 100000 nM.

For the molecule `CCCCOc1nc(-c2ccc(F)cc2)c(-c2ccc(S(C)(=O)=O)cc2)cc1C#N` [Example 14, 2-Butoxy-6-(4-fluorophenyl)-5-[4-(methylsulfonyl)phenyl]pyridine-3-carbonitrile], the IC50 was less than 100 nM at COX-2 and greater than 100000 nM on COX-1.

Regarding `CCCCOc1nc(-c2ccc(F)cc2)c(-c2ccc(S(C)(=O)=O)cc2)cc1CO` [Example 29, 2-Butoxy-6-(4-fluorophenyl)-5-[4-(methylsulfonyl)phenyl]pyridine-3-methanol], the IC50 at COX-2 is less than 100 nM; on COX-1, greater than 100000 nM.

With `CCCCOc1nc(-c2ccc(F)cc2)c(-c2ccc(S(C)(=O)=O)cc2)cc1COC(=O)CCC` [Example 40, [2-Butoxy-6-(4-fluorophenyl)-5-[4-(methylsulfonyl)phenyl]pyridin-3-yl]methylbutanoate], the values for the IC50 at COX-2 and at COX-1 were 100 nM and greater than 100000 nM, respectively.

For the molecule `CSc1nc(-c2ccc(F)cc2)c(-c2ccc(S(C)(=O)=O)cc2)cc1C#N` [Example 13, 6-(4-Fluorophenyl)-5-[4-(methylsulfonyl)phenyl]-2-(methylthio)pyridine-3-carbonitrile], the IC50 at COX-2 was 200 nM; on COX-1, greater than 100000 nM.

Take `CN(C)c1nc(-c2ccc(F)cc2)c(-c2ccc(S(C)(=O)=O)cc2)cc1C#N` [Example 12, 2-(Dimethylamino)-6-(4-fluorophenyl)-5-[4-(methylsulfonyl)phenyl]pyridine-3-carbonitrile]: the IC50 at COX-2 is 600 nM; at COX-1, greater than 100000 nM.

Regarding `CCCCOc1nc(-c2ccc(F)cc2)c(-c2ccc(S(C)(=O)=O)cc2)cc1CN(C)C` [Example 37, 2-Butoxy-6-(4-fluorophenyl)-N,N-dimethyl-5-[4-(methylsulfonyl)phenyl]pyridine-3-methanamine], the figures for the IC50 at COX-2 and at COX-1 were 800 nM and greater than 100000 nM, respectively.

On to `CSc1ccc(-c2nc(SC)ccc2-c2ccc(S(C)(=O)=O)cc2)cc1` [Example 5, 5-[4-(Methylsulfonyl)phenyl]-2-methylthio-6-[4-(methylthio)phenyl]pyridine], for which the IC50 is less than 100 nM at COX-2 and greater than 100000 nM at COX-1.

Regarding `CCCCOc1nc(-c2ccc(F)cc2)c(-c2ccc(S(C)(=O)=O)cc2)cc1CN` [Example 32, 2-Butoxy-6-(4-fluorophenyl)-5-[4-(methylsulfonyl)phenyl]pyridine-3-methylamine], the IC50 is 1600 nM at COX-2 and greater than 100000 nM on COX-1.

Regarding `CS(=O)(=O)c1ccc(-c2cc(C#N)c(OCCCC(F)(F)F)nc2-c2ccc(F)cc2)cc1` [Example 27, 6-(4-Fluorophenyl)-5-[4-(methylsulfonyl)phenyl]-2-(4,4,4-trifluorobutoxy)pyridine-3-carbonitrile], the IC50 was 200 nM on COX-2 and greater than 100000 nM at COX-1.

`C=CCOc1nc(-c2ccc(F)cc2)c(-c2ccc(S(C)(=O)=O)cc2)cc1C#N` [Example 17, 6-(4-Fluorophenyl)-5-[4-(methylsulfonyl)phenyl]-2-[(2-propenyl)oxy]pyridine-3-carbonitrile]: the IC50 was less than 100 nM on COX-2 and greater than 100000 nM on COX-1.

Regarding `CCCCOc1nc(-c2ccc(F)cc2)c(-c2ccc(S(C)(=O)=O)cc2)cc1COC(=O)C(C)(C)C` [Example 41, [2-Butoxy-6-(4-fluorophenyl)-5-[4-(methylsulfonyl)phenyl]pyridin-3-yl]methyl-2,2-propanoate], the IC50 on COX-2 and at COX-1 was greater than 100000 nM in each case.

Consider `CS(=O)(=O)c1ccc(-c2cc(C#N)c(OCc3ccccc3)nc2-c2ccc(F)cc2)cc1` [Example 15, 6-(4-Fluorophenyl)-5-[4-(methylsulfonyl)phenyl]-2-(phenylmethoxy)pyridine-3-carbonitrile], for which the IC50 on COX-2 is less than 100 nM; on COX-1, greater than 100000 nM.

`CCCOc1nc(-c2ccc(F)cc2)c(-c2ccc(S(C)(=O)=O)cc2)cc1C#N` [Example 10, 6-(4-Fluorophenyl)-5-[4-(methylsulfonyl)phenyl]-2-propoxypyridine-3-carbonitrile]: the figures for the IC50 on COX-2 and on COX-1 were 200 nM and greater than 100000 nM, respectively.

As to `COc1ccc(-c2nc(OC)c(C#N)cc2-c2ccc(S(C)(=O)=O)cc2)cc1` [Example 11, 2-Methoxy-6-(4-methoxyphenyl)-5-[4-(methylsulfonyl)phenyl]pyridine-3-carbonitrile], the IC50 is 400 nM at COX-2 and greater than 100000 nM at COX-1.

As for `CCCCOc1nc(-c2ccc(F)cc2)c(-c2ccc(S(C)(=O)=O)cc2)cc1C(C)O` (racemic) [Example 43, (+/-) 2-Butoxy-6-(4-fluorophenyl)-α-methyl-5-[4-(methylsulfonyl)phenyl]pyridine-3-methanol], the results for the IC50 on COX-2 and on COX-1 were 100 nM and 28000 nM, respectively.

As to `CCCCOc1nc(-c2ccc(F)cc2)c(-c2ccc(S(C)(=O)=O)cc2)cc1CNC` [Example 42, 2-Butoxy-6-(4-fluorophenyl)-N-methyl-5-[4-(methylsulfonyl)phenyl]pyridine-3-methanamine], the IC50 was 3000 nM at COX-2 and greater than 100000 nM on COX-1.

`CCCCOc1nc(-c2ccc(F)cc2)c(-c2ccc(S(N)(=O)=O)cc2)cc1C#N` [Example 28, 4-[6-butoxy-4-cyano-2-(4-Fluorophenyl)-3-pyridine]benzenesulfonamide]: the IC50 on COX-2 was less than 100 nM; on COX-1 it was 200 nM.

As for `CCCCCOc1nc(-c2ccc(F)cc2)c(-c2ccc(S(C)(=O)=O)cc2)cc1C#N` [Example 24, 6-(4-Fluorophenyl)-5-[4-(methylsulfonyl)phenyl]-2-pentoxypyridine-3-carbonitrile], the IC50 was less than 100 nM at COX-2 and greater than 100000 nM at COX-1.

For `CCCCCCOc1nc(-c2ccc(F)cc2)c(-c2ccc(S(C)(=O)=O)cc2)cc1C#N` [Example 18, 6-(4-Fluorophenyl)-2-hexyloxy-5-[4-(methylsulfonyl)phenyl]pyridine-3-carbonitrile], the IC50 is 200 nM on COX-2 and greater than 100000 nM at COX-1.

Turning to `CC(C)=CCOc1nc(-c2ccc(F)cc2)c(-c2ccc(S(C)(=O)=O)cc2)cc1C#N` [Example 25], the figures for the IC50 at COX-2 and on COX-1 were 100 nM and greater than 100000 nM, respectively.

For the molecule `CS(=O)(=O)c1ccc(-c2ccc(N=[N+]=[N-])nc2-c2ccc(F)cc2)cc1` [Example 6, 2-Azido-6-(4-fluorophenyl)-5-[4-(methylsulfonyl)phenyl]pyridine], the IC50 on COX-2 was 2000 nM; on COX-1, greater than 100000 nM.

Regarding `CCCCOc1nc(-c2ccc(F)cc2)c(-c2ccc(S(C)(=O)=O)cc2)cc1C(F)F` [Example 31, 2-Butoxy-3-difluoromethyl-6-(4-fluorophenyl)-5-[4-(methylsulfonyl)phenyl]pyridine], the IC50 at COX-2 was less than 100 nM; on COX-1, greater than 100000 nM.

In the case of `CCCCOc1nc(-c2ccc(F)cc2)c(-c2ccc(S(C)(=O)=O)cc2)cc1CNC(C)=O` [Example 33], the results for the IC50 at COX-2 and on COX-1 were 1400 nM and greater than 100000 nM, respectively.

As to `CNc1nc(-c2ccc(F)cc2)c(-c2ccc(S(C)(=O)=O)cc2)cc1C#N` [Example 16, 6-(4-Fluorophenyl)-2-(methylamino)-5-[4-(methylsulfonyl)phenyl]pyridine-3-carbonitrile], the IC50 at COX-2 is 2300 nM; on COX-1 it was greater than 100000 nM.
